Laboratory results reported in patent US6110955A, “Metabolically stabilized oxyalkylene esters and uses thereof” (Beacon Laboratories, Inc., priority 1997, dated 2000).
Entries after “also recorded” stand apart in the source; their conditions may differ.

What was measured:
[1] = system: B16 melanoma; conditions: cited from earlier work
[2] = system: nuclear deacetylase(s); conditions: cited from earlier work
[3] = system: cancer patients; conditions: clinical trials; cited from earlier work
[4] = In vitro stability in human blood; format: in vitro ADME; conditions: whole human blood, radiolabelled, read-out: calculated half time
Procedure: Radiolabelled Compound 1 (5 μCi) was added to 1 mL of whole human blood and allowed to stand for various times. The samples were quenched with acetonitrile and prepared as previously described.

[5] = system: LOX IMVI; test: Inhibition of cancer cell growth, sulforhodamine B (SRB) method; format: cell-based; conditions: Homo sapiens
Procedure: (§1) Inhibition of cancer cell growth was measured by the sulforhodamine B (SRB) method as described by Monks et al., J. Nat. Canc. Inst., (1991), 83: 757-766, incorporated herein in its entirety. The SRB assay is recognized by the National Institute for Cancer (NCI) as a reliable screen for anticancer drugs and is used by the NCI for this purpose. […] (FIGS. 3A-3D).

[6] = system: OVCAR-5; test: as above; format: cell-based; conditions: Homo sapiens
Procedure: as §1

[7] = system: CFPAC; test: as above; format: cell-based; conditions: Homo sapiens
Procedure: as §1

[8] = system: MCF7; test: as above; format: cell-based; conditions: Homo sapiens
Procedure: as §1

[9] = system: human neuroblastoma cell lines; test: Clonogenicity across the neuroblastoma cell lines (summary); format: cell-based
Procedure: (§2) Inhibition of cancer cell growth in agar culture--clonogenicity was tested using cell lines as follows:
(§3) Cells were harvested, washed in complete media, and counted.
(§4) After overnight culture, AB or α-methyl-4-(2-methylpropyl)-benzeneacetyloxymethyl butyrate was added at the indicated concentration. The control cells received media alone.

[10] = system: human pancreatic, ovarian, breast carcinoma and melanoma cell lines; test: Inhibition of cancer cell growth, SRB method (summary over cell lines); format: cell-based; conditions: compared with AB
Procedure: as §1

[11] = system: SK-N-MC; test: Clonogenicity in soft agar (growth inhibition); format: cell-based, human
Procedure: as §2, §3, §4

[12] = system: SK-N-SH; test: Clonogenicity in soft agar (growth inhibition); format: cell-based, human
Procedure: as §2, §3, §4

[13] = system: SMS-KAN; test: Clonogenicity in soft agar (growth inhibition); format: cell-based, human
Procedure: as §2, §3, §4

[14] = system: NBAS-5; test: Clonogenicity in soft agar (growth inhibition); format: cell-based, human
Procedure: as §2, §3, §4

[15] = system: LA1-5S; test: Clonogenicity in soft agar (growth inhibition); format: cell-based, human
Procedure: as §2, §3, §4

[16] = system: SMS-KCN; test: Clonogenicity in soft agar (growth inhibition); format: cell-based, human
Procedure: as §2, §3, §4

[17] = system: NBL-S; test: Clonogenicity in soft agar (growth inhibition); format: cell-based, human
Procedure: as §2, §3, §4

[18] = system: NGP; test: Clonogenicity in soft agar (growth inhibition); format: cell-based, human
Procedure: as §2, §3, §4

[19] = system: IMR-32; test: Clonogenicity in soft agar (growth inhibition); format: cell-based, human
Procedure: as §2, §3, §4

[20] = system: NBL-W-N; test: Clonogenicity in soft agar (growth inhibition); format: cell-based, human
Procedure: as §2, §3, §4

[21] = system: human colon carcinoma, leukemia and retinoblastoma cell lines; conditions: in vitro; cited from earlier work
[22] = system: primary and immortalized cell lines; conditions: cited from earlier work
[23] = system: mitochondrial β-oxidation of fatty acids; conditions: cited from earlier work

Q: Which oncogene expression [1] does the source give for CCCC(=O)O [BA, Butyric acid] here?
A: decrease in the expression of c-myc and H-ras oncogenes in B16 melanoma

Q: And the “effect on nuclear deacetylase(s)” value [2]?
A: inhibition of nuclear deacetylase(s), resulting in hyperacetylation of histones H3 and H4

Q: What about the “efficacy in cancer patients” value [3] of the same molecule?
A: minimal or transient efficacy

Q: What does the source list for CCCC(=O)OCOC(=O)C(C)c1ccc(CC(C)C)cc1 (stereo not drawn) [Compound 1, α-methyl-4-(2-methylpropyl)-benzeneacetyloxymethyl butyrate]?
A: half-life [4]: ~20.8 min; inhibition at 31.25 pM ([5]; dosage 0.03125 nM): 0%; inhibition at 62.5 pM ([5]; dosage 0.06250 nM): 0.1%; inhibition at 0.000125 µM ([5]; dosage 0.12500 nM): 1.5%; inhibition at 0.00025 µM ([5]; dosage 0.25000 nM): 0%; inhibition at 0.001 µM ([5]; dosage 1.00000 nM): 94.9%; inhibition at 0.002 µM ([5]; dosage 2.00000 nM): 96%; inhibition at 0.004 µM ([5]; dosage 4.00000 nM): 97.4%; inhibition at 31.25 pM ([6]; OVCAR-5, dosage 0.03125 nM): 0%; inhibition at 62.5 pM ([6]; OVCAR-5, dosage 0.06250 nM): 0.3%; inhibition at 0.000125 µM ([6]; OVCAR-5, dosage 0.12500 nM): 0.5%; inhibition at 0.00025 µM ([6]; OVCAR-5, dosage 0.25000 nM): 0%; inhibition at 0.0005 µM ([6]; OVCAR-5, dosage 0.50000 nM): 0.9%; inhibition at 0.001 µM ([6]; OVCAR-5, dosage 1.00000 nM): 39.7%; inhibition at 0.002 µM ([6]; OVCAR-5, dosage 2.00000 nM): 99.8%; inhibition at 0.004 µM ([6]; OVCAR-5, dosage 4.00000 nM): 95.1%; inhibition at 31.25 pM ([7]; dosage 0.03125 nM): 0%; inhibition at 62.5 pM ([7]; dosage 0.06250 nM): 0.1%; inhibition at 0.000125 µM ([7]; dosage 0.12500 nM): 1.1%; inhibition at 0.00025 µM ([7]; dosage 0.25000 nM): 0%; inhibition at 0.0005 µM ([7]; dosage 0.50000 nM): 93.3%; inhibition at 0.001 µM ([7]; dosage 1.00000 nM): 94.9%; inhibition at 0.002 µM ([7]; dosage 2.00000 nM): 96%; inhibition at 0.004 µM ([7]; dosage 4.00000 nM): 97.4%; inhibition at 31.25 pM ([8]; MCF7, dosage 0.03125 nM): 0%; inhibition at 62.5 pM ([8]; MCF7, dosage 0.06250 nM): 0%; inhibition at 0.000125 µM ([8]; MCF7, dosage 0.12500 nM): 0%; inhibition at 0.00025 µM ([8]; MCF7, dosage 0.25000 nM): 1.1%; inhibition at 0.0005 µM ([8]; MCF7, dosage 0.50000 nM): 57.8%; inhibition at 0.001 µM ([8]; MCF7, dosage 1.00000 nM): 99.3%; inhibition at 0.002 µM ([8]; MCF7, dosage 2.00000 nM): 98.9%; inhibition at 0.004 µM ([8]; MCF7, dosage 4.00000 nM): 98.7%; inhibition of clonogenicity (in words) [9]: dose-dependent manner; sensitivity / potency relative to AB (in words) ([9]; compared with AB): mostly an order of magnitude more sensitive; also recorded: significantly more potent tumor cell clonogenicity inhibitor than AB; ratio between the IC50 of AB/Compound 1, "maiden" value ([9]; over the cell lines): 16; ratio between the IC50 of AB/Compound 1, range ([9]; over the cell lines): 7-63 fold; ratio between the IC90 of AB/Compound 1, "maiden" value ([9]; over the cell lines): 32; ratio between the IC90 of AB/Compound 1, range ([9]; over the cell lines): 7-434; greater activity than that of AB [10]: at least 100 fold; AB/Compound 1 (IC50 ratio) [11]: 9; AB/Compound 1 (IC90 ratio) [11]: 887; IC50 ([11]; Homo sapiens): 24 µM; IC90 ([11]; Homo sapiens): 148 µM; AB/Compound 1 (IC50 ratio) [12]: 63.37; AB/Compound 1 (IC90 ratio) [12]: 87; IC50 ([12]; Homo sapiens): 16 µM; IC90 ([12]; Homo sapiens): 39 µM; activity at 10 µM ([12]; Homo sapiens, 10 μM, read-out: clones relative to media-treated control cultures): 66%; activity at 20 µM ([12]; Homo sapiens, 20 μM, read-out: clones relative to media-treated control cultures): 50%; activity at 50 µM ([12]; Homo sapiens, 50 μM, read-out: clones relative to media-treated control cultures): 5%; activity at 100 µM ([12]; Homo sapiens, 100 μM, read-out: clones relative to media-treated control cultures): 1%; activity at 250 µM ([12]; Homo sapiens, 250 μM, read-out: clones relative to media-treated control cultures): 0%; AB/Compound 1 (IC50 ratio) [13]: 14.7; AB/Compound 1 (IC90 ratio) [13]: 7.2; IC50 ([13]; Homo sapiens): 77 µM; IC90 ([13]; Homo sapiens): 289 µM; IC50 ([14]; Homo sapiens, NBAS-5): 15 µM; IC90 ([14]; Homo sapiens, NBAS-5): 30 µM; activity at 10 µM ([14]; Homo sapiens, NBAS-5, 10 μM, read-out: clones relative to media-treated control cultures): 76 ± 7%; activity at 20 µM ([14]; Homo sapiens, NBAS-5, 20 μM, read-out: clones relative to media-treated control cultures): 27 ± 15%; activity at 50 µM ([14]; Homo sapiens, NBAS-5, 50 μM, read-out: clones relative to media-treated control cultures): 3%; activity at 100 µM ([14]; Homo sapiens, NBAS-5, 100 μM, read-out: clones relative to media-treated control cultures): 0%; activity at 250 µM ([14]; Homo sapiens, NBAS-5, 250 μM, read-out: clones relative to media-treated control cultures): 0%; AB/Compound 1 (IC50 ratio) ([14]; NBAS-5): 55.53; AB/Compound 1 (IC90 ratio) ([14]; NBAS-5): 434; AB/Compound 1 (IC50 ratio) [15]: 56; AB/Compound 1 (IC90 ratio) [15]: 31.8; IC50 ([15]; Homo sapiens): 29 µM; IC90 ([15]; Homo sapiens): 84 µM; AB/Compound 1 (IC50 ratio) [16]: 15.86; IC50 ([16]; Homo sapiens): 118 µM; AB/Compound 1 (IC50 ratio) [17]: 29.2; AB/Compound 1 (IC90 ratio) [17]: 32.8; IC50 ([17]; Homo sapiens): 24 µM; IC90 ([17]; Homo sapiens): 61 µM; AB/Compound 1 (IC50 ratio) [18]: 67.9; AB/Compound 1 (IC90 ratio) [18]: 18.46; IC50 ([18]; Homo sapiens): 15 µM; IC90 ([18]; Homo sapiens): 87 µM; IC50 ([19]; Homo sapiens, IMR-32): 15 µM; IC90 ([19]; Homo sapiens, IMR-32): 32 µM; activity at 10 µM ([19]; Homo sapiens, IMR-32, 10 μM, read-out: clones relative to media-treated control cultures): 71 ± 10%; activity at 20 µM ([19]; Homo sapiens, IMR-32, 20 μM, read-out: clones relative to media-treated control cultures): 46 ± 8%; activity at 50 µM ([19]; Homo sapiens, IMR-32, 50 μM, read-out: clones relative to media-treated control cultures): 3 ± 1%; activity at 100 µM ([19]; Homo sapiens, IMR-32, 100 μM, read-out: clones relative to media-treated control cultures): 0%; activity at 250 µM ([19]; Homo sapiens, IMR-32, 250 μM, read-out: clones relative to media-treated control cultures): 0%; AB/Compound 1 (IC50 ratio) ([19]; IMR-32): 59; AB/Compound 1 (IC90 ratio) ([19]; IMR-32): 111437; AB/Compound 1 (IC50 ratio) [20]: 10.6; AB/Compound 1 (IC90 ratio) [20]: 22.9; IC50 ([20]; Homo sapiens): 46 µM; IC90 ([20]; Homo sapiens): 134 µM

Q: Which apoptosis [21] does the source give for CCCC(=O)[O-].[Na+] [SB, sodium butyrate] here?
A: produce apoptosis in vitro in human colon carcinoma, leukemia and retinoblastoma cell lines

Q: With CCCC(=O)OCC(COC(=O)CCC)OC(=O)CCC [Tributyrin] as the molecule, how does the “expression of a reporter gene” value [22] read?
A: enhance the expression of a reporter gene in primary and immortalized cell lines

Q: With O=C(O)CCCCCCNC1c2ccccc2CCc2ccccc21 [aminetepine] as the molecule, how does the “mitochondrial β-oxidation of fatty acids” value [23] read?
A: decrease mitochondrial β-oxidation of fatty acids

Q: Which “mitochondrial β-oxidation of fatty acids” value [23] does the source give for CC(C)Cc1ccc(C(C)C(=O)O)cc1 (stereo not shown) [ibuprofen] here?
A: decrease mitochondrial β-oxidation of fatty acids

Q: With O=C(O)c1ccccc1O [salicylic acid] as the molecule, how does the “mitochondrial β-oxidation of fatty acids” value [23] read?
A: decrease mitochondrial β-oxidation of fatty acids

Q: Which “mitochondrial β-oxidation of fatty acids” value [23] does the source give for CN(C)C1C(=O)C(C(N)=O)=C(O)C2(O)C(=O)C3=C(O)c4c(O)cccc4C(C)(O)C3CC12 (stereo not shown) [tetracycline] here?
A: decrease mitochondrial β-oxidation of fatty acids

Q: With CN1c2ccccc2C(NCCCCCCC(=O)O)c2ccc(Cl)cc2S1(=O)=O (stereo not shown) [tianeptine] as the molecule, how does the “mitochondrial β-oxidation of fatty acids” value [23] read?
A: decrease mitochondrial β-oxidation of fatty acids

Q: With CCCC(CCC)C(=O)O [valproic acid] as the molecule, how does the “mitochondrial β-oxidation of fatty acids” value [23] read?
A: decrease mitochondrial β-oxidation of fatty acids
